Where two headings read alike, the source gives them in different places.
Legend:
[1] = target: T1, human c-Met (phospho-c-Met in S114 tumors) (Homo sapiens, UniProt P08581); test: c-Met in vivo target inhibition (IVTI) assay, S114 tumors in nude mice; parameters: species or system mouse
T1 construct: expressed in transfected cells; host or cells: S114 cells grown as subcutaneous tumors in athymic nude mice
Description: S114 cells (over-expressing both human HGF and human c-Met) are cultured in a growth media (Dulbecco's Modified Eagle Medium) supplemented with 10% fetal calf serum and expanded. Cells are harvested and washed twice with phosphate buffered saline and 2×10^6 cells are mixed with equal volume of BD Matrigel™ matrix (BD Bioscience, Franklin, N.J.), and injected subcutaneously into the flank of nude mice (athymic nude, from Harlan, Indianapolis, Ind.). At day 8 after implant, compounds (formulated in 10% acacia or 1% carboxymethylcellulose/0.5% sodium lauryl sulfate/0.05% antifoam as suspension) are administered to animals by oral gavage at 50 mg/kg. Animals are sacrificed at 2 h post dose, and tumors are harvested and stored frozen until needed.
Frozen tumors are pulverized using motar-pestel. The pulverized tissues are transferred to a tube containing Lysing Matrix D beads (MP Biomedicals, Solon, Ohio) and 600 μL lysis buffer (RIPA buffer, containing 50 mM Tris-HCl, pH 7.4, 150 mM NaCl, 1% NP-40, 0.5% sodium deoxycholate, 0.1% SDS, from Boston Bioproducts, Phosphatase Inhibitors I and II and Protease Inhibitor (Sigma, St. Louis, Mo.)). A FastPrep® Cell Disrupter (MP Biomedicals, Inc.) is used to disrupt the tissue and lyse the cells. Lysates are passed through a 20 gauge needle and transferred to a clean tube. Protein concentration is determined by Bradford method known to one of skill in the art.
Tumor lysates are loaded onto MSD® phosphor-Met ELISA plates and phosphor-c-Met level is determined using the same protocol as H460 cell-based ELISA. […] The TEC50 for example 1 is 0.18 μM with a 95% confidence interval bounded by 0.13 μM and 0.23 μM.
(§1) In IVTI studies, each compound is administered orally and formulated in 10% w/v acacia. Mouse blood samples are collected with anti-coagulant (EDTA-purple top Vacutainer tube) post-dose using cardiac puncture techniques. Tubes are inverted for 3-5 times and are placed on ice until centrifugation at 3000 RPM (1800×g) for 10 min at 4° C. to obtain plasma. Aliquots of plasma are pipetted and stored in a clean 96 well plate. Plasma samples are stored immediately at −80° C. Shipments of plasma samples are packed in dry ice and samples are frozen at −80° C. until analysis.

[2] = test system: U87MG glioblastoma xenografts; test: Xenograft tumor model U87MG; type: in vivo, mice
Description: Human glioblastoma cells U87MG, human gastric cancer cells MKN45, or human pancreatic KP4 cells are cultured and implanted subcutaneously in the rear flank of female CD-1 nu/nu strain mice which have been acclimated for one week in the animal facility after receipt from the vendor. Mice are randomized into groups of 10 mice per group. Testing compound is prepared in an appropriate vehicle and is administered by oral gavage when tumors are established (7-21 days after implant, or when the mean tumor volume reaches ˜100 mm^3). Tumor response is determined by tumor volume measurement performed twice a week during the course of treatment. Fluctuations in body weight are also monitored as a general measurement of toxicity. The compound of example 1 is orally administered twice a day for 28 days.
For statistical analysis, the individual subject tumor volumes are transformed to log volume and are analyzed with a two-way repeated measures analysis of variance by time and treatment using the MIXED procedures in SAS software (version 8.2). The correlation model for the repeated measures is spatial power. Treated groups are compared to the control group at the final time point. The MIXED procedure is also used separately for each treatment group to calculate adjusted means and standard errors at each time point. Both analyses account for the autocorrelation within each subject.

[3] = Plasma concentration in IVTI studies; type: in vivo; conditions: athymic nude, mouse, oral, 10% acacia
Description: as §1
A 0.1-mg/mL stock solution of each drug was prepared and is serially diluted into pooled mouse plasma to prepare standards ranging from 1 to 5000 ng/mL. Plasma standards or samples (0.025 mL) in 96-well plates are treated by protein precipitation with the addition of a 0.1-0.2 ml of methanol: acetonitrile (1/1, v/v) containing internal standard. […] Samples and standards are analyzed with a Sciex API 4000 Triple Quadrupole Mass Spectrometer (Sciex, Division of MDS Inc., Toronto, Canada) coupled to a Shimadzu HPLC System (LC-10AD, Shimadzu Corporation) and a Gilson 215 Autosampler. […] Quantitation is performed using multiple reaction monitoring (MRM) at the following transitions: Example 1 (m/z 363.05 to m/z 163.10) and the reference compound 20 (m/z 363.05 to m/z 163.10). […]

[4] = Kinetic solubility screen (nephelometry); type: physicochemical
Description: The assay is used to determine the concentration range in which a compound that has been pre-solubilized in DMSO at 10 mM will precipitate from a solution. The assay is conducted in a screening format on a 96-well plate and measures the nephelometry (light scattering) from precipitated compound in aqueous phosphate buffer (50 mM; pH 7.4). This method consists of a 2-hour RT (room temperature) incubation of compound in buffer at concentrations of 10, 20, 40, 60, 80, and 100 μM (where % DMSO is kept constant). Plates are pre-read by the nephelometer to determine if scratches or dust particles are present and this is used for background subtraction. The reported values are the concentrations at which the last soluble and first insoluble are achieved. These assays are not optimized to assess equilibrium solubility or determine a “true” kinetic solubility.

T1 sequence (P08581 25-1390): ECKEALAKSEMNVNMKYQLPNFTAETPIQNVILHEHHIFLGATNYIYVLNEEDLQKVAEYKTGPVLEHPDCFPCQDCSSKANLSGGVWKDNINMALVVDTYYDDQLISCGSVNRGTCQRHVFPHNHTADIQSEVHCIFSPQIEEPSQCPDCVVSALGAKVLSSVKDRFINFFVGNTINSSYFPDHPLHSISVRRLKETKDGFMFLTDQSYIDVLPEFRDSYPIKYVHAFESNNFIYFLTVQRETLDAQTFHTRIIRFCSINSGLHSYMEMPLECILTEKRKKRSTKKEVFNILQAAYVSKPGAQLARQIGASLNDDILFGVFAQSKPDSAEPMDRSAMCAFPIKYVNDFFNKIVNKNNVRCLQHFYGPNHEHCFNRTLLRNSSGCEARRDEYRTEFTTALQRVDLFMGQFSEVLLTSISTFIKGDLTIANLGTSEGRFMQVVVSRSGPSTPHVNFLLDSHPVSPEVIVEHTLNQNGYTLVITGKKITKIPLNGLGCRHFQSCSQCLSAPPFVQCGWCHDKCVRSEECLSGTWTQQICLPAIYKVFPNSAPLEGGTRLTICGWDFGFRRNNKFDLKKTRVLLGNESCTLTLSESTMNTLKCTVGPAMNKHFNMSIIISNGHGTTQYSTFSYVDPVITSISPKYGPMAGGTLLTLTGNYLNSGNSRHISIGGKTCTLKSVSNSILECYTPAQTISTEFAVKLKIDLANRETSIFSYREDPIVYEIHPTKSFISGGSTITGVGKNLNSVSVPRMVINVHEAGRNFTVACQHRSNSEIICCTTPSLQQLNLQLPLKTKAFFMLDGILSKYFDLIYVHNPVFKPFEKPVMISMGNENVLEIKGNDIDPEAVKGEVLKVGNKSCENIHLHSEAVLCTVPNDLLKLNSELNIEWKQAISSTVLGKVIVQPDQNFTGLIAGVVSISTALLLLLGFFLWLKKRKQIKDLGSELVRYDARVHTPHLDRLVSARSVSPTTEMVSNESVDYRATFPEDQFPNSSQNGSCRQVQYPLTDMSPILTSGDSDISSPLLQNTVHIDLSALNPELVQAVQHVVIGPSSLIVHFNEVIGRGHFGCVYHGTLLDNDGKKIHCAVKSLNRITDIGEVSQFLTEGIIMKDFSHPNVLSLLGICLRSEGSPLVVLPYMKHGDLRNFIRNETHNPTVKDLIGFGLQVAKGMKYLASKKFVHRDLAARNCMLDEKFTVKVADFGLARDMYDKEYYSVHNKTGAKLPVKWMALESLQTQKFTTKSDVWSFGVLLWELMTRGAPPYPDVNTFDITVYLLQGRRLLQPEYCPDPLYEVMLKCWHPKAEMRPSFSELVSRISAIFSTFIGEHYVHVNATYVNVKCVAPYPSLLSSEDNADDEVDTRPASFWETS

Q: Which results are given for `Cn1cc(-c2ccc3nnc(Sc4ccc5nn(C)cc5c4)n3n2)cn1` [Example 1, 6-(1-Methyl-1H-pyrazol-4-yl)-3-(2-methyl-2H-indazol-5-ylthio)-[1,2,4]triazolo[4,3-b]pyridazine]?
A: inhibition at 16 mg/kg ([1]; 16 mg/Kg dose, 2 h, experiment separate from head to head study, read-out: Single dose IVTI % inhibition after 2 h): 98%; EC50 ([1]; S114 tumors in nude mice, read-out: TEC50): 180 nM; inhibition at 8 mg/kg ([1]; S114 tumors, oral 8 mg/kg, 8 h, read-out: % phos-Met inhibition at 8 mg/kg after 8 h): 75%; inhibition at 20 mg/kg ([1]; S114 tumors, oral 20 mg/kg, 8 h, read-out: % phos-Met inhibition at 20 mg/kg after 8 h): 93%; ED50 ([1]; oral gavage, S114 tumors in nude mice): 0.32 mg/kg; Mean Tumor Volume ± Standard Error ([2]; 2 mg/kg oral twice a day for 28 days): 271 ± 61 mm^3; Mean Tumor Volume ± Standard Error ([2]; 4 mg/kg oral twice a day for 28 days): 137 ± 29 mm^3; Mean Tumor Volume ± Standard Error ([2]; 8 mg/kg oral twice a day for 28 days): 108 ± 16 mm^3; Mean Tumor Volume ± Standard Error ([2]; 16 mg/kg oral twice a day for 28 days): 116 ± 19 mm^3; Mean Tumor Volume ± Standard Error ([2]; 32 mg/kg oral twice a day for 28 days): 46 ± 4 mm^3; concentration at 8 h ([3]; 8 mg/kg, read-out: Plasma conc. 8 mg/Kg after 8 h): 141 ng/mL; concentration at 8 h ([3]; 20 mg/kg, read-out: Plasma conc. 20 mg/Kg after 8 h): 318 ng/mL; 1st insoluble pH 7.4 ([4]; 50 mM phosphate buffer pH 7.4, 2 h RT, from 10 mM DMSO): Non detect; solubility at 2 h ([4]; aqueous phosphate buffer, aqueous buffer, kinetic from dmso stock, 50 mM phosphate buffer pH 7.4, 2 h RT, from 10 mM DMSO, read-out: Last soluble pH 7.4): > 100 µM; fold more soluble than the reference compound in pH 7.4 buffer ([4]; kinetic solubility screen pH 7.4): at least 3 fold

From US8268836B2, “Compound useful as a c-Met inhibitor” (Eli Lilly and Company, priority 2010, dated 2012)
